# Test results as given in patent US20260273072A1, “NOVEL PLK1 DEGRADATION INDUCING COMPOUND” (UPPTHERA, INC., priority 2023, published 2026).
# Read-outs that look alike come from different tables or passages of the source.
# Legend:
# Format in all cases: cell-based
# MRC-5 cell line = test: Cell viability assay for MRC-5 cell line (EZ-Cytox); conditions: for IC50: Homo sapiens, MRC5, 120 h
# Method: 4. Cell Viability Assay for MRC-5 Cell Line
# (1) Culture of MRC-5 Cell Line
# The MRC-5 cell line was purchased from KCLB. Passage of cultured cells was maintained within P15.
# (2) Treatment of Compounds of the Present Invention
# Then, it was cultured in 37° C. CO2 incubator (Thermo Fisher Scientific) for 5 days.
# (3) Cytotoxicity Experiment
# CO2 incubator for 4 hours.
# NCI-H69 cell line = test: Cell viability assay for NCI-H69 cell line (EZ-Cytox); conditions: Homo sapiens, NCI-H69, 120 h; H69 cells, 5 days, 3000 nM to 0.46 nM
# Method: (§1) 3. Cell Viability Assay for NCI-H69, NCI-H526 Cell Lines
# (§2) (1) Culture of NCI-H69, NCI-H526 Cell Lines
# (§3) The NCI-H69 (hereafter H69) and NCI-H526 (hereafter H526) cell lines were purchased from KCLB.
# (§4) (2) Treatment of Compounds of the Present Invention and Method of Cell Viability Assay
# (§5) After treating the compound to each well to make the total volume of 200 μl, it was cultured in a CO2 incubator (Thermo Fisher Scientific) for 5 days. […] The absorbance of the completely cultured sample was measured by setting the wavelength of a plate reader (BMG Labtech) to […], and was measured after shaking for 3 minutes in a plate reader before measurement.
# (§6) The results of cell viability for H526 and H69 cell line are shown in Table 3 and Table 4, respectively.
# (§7) In Table 3 and Table 4, Activity represents IC50 value of each Exemplary Compound treatment group to H526 and H69 cell line, respectively (A: <30 nM, B: <50 nM, C: <100 nM, D: <200 nM, E: <400 nM).
# NCI-H526 cell line = test: Cell viability assay for NCI-H526 cell line (EZ-Cytox); conditions: Homo sapiens, NCI-H526, 120 h; H526 cells, 5 days, 3000 nM to 0.46 nM
# Method: as §1, §2, §3, §4, §5, §6, §7
# PLK1 = molecular target: T1, PLK1 (Homo sapiens, UniProt P53350); test: Luciferase assay for PLK1 in HeLa LgBit (Plk1-HiBit KI) cell line; conditions: 300 nM compound, luminescence after 9 hours
# T1 construct: endogenous in cells; host or cells: HeLa LgBit (Plk1-HiBit KI): HeLa stably expressing LgBit, with a CRISPR/Cas9 knock-in of HiBit at the endogenous PLK1 locus
# Method: 2. Luciferase Assay for PLK1
# (1) Preparation and Culture of HeLa LgBit (Plk1-HiBit KI) Cell Line
# A HeLa cell line in which the LgBit vector was transfected and expressed stably was prepared. Then, after constructing gRNA and donor to express the HiBit amino acid sequence behind the C-terminal of the PLK1 gene, which was inherent in the cell, it was inserted into the cell together with a vector capable of expressing CRISPR/Cas9. Only the cells in which the insertion was completed and knock-in had progressed were selected, sub-cultured and used.
# For cell culture, DMEM (Gibco), FBS (Gibco), PS (Gibco), […] cell culture dish (SPL), […] cell culture dish (SPL), 96-well culture plate (SPL), PBS pH 7.4 (Gibco), TrypLE™ Express (Gibco), Cell counter (Thermo Fisher Scientific) and 0.4% Trypan Blue Solution (DYNEBIO) were used.
# (2) Treatment of Compounds of the Present Invention and Method of Luciferase Assay
# In the case of HeLa LgBit (Plk1-HiBit KI), the compounds were treated after being released after thymidine block, and the process was as follows. Thymidine (Sigma-Aldrich) was completely dissolved in ddH2O and used in the experiment. For thymidine block, the products were treated with 2 mM of thymidine and then incubated for 24 hours. For release and chemical treatment, the medium was suctioned and washed with 1×PBS. TrypLE™ (Gibco) was added and incubated in 37° C. CO2 incubator (Thermo Fisher Scientific) for 5 mins. Cells neutralized by adding complete media were counted through a counter. For each well of a 96-well culture plate (SPL), 3.3×10^4 cells and a total medium volume of 150 μl were seeded and incubated in a CO2 incubator.
# Each cell line was incubated in a CO2 incubator for 18 hours, and Endurazine (Promega, Cat. No. N257B) was added to each well to make up 4% of the total volume. After adding compounds of Examples in a 96-well white plate (SPL) to a concentration of 300 nM, the wavelength of the plate reader (BMG Labtech, CLARIOstar Plus) was set to 470-480 nm, and then the luminescence was tracked in real time.
# In Table 2, Activity represents the ratio of the luminescence value of each Exemplary Compound treatment group to DMSO treatment group (+++: <0.3, ++: <0.5, +: <0.7).
# [1] = MRC-5 normal cell line, 5 days, 10000 nM to 1.52 nM, read-out: Activity: IC50 value, cell viability, MRC-5 cell line (Exemplary Compounds)
# [2] = read-out: Activity: IC50 value, cell viability, MRC-5 cell line (Comparative Compounds)
# T1 sequence (P53350 whole entry): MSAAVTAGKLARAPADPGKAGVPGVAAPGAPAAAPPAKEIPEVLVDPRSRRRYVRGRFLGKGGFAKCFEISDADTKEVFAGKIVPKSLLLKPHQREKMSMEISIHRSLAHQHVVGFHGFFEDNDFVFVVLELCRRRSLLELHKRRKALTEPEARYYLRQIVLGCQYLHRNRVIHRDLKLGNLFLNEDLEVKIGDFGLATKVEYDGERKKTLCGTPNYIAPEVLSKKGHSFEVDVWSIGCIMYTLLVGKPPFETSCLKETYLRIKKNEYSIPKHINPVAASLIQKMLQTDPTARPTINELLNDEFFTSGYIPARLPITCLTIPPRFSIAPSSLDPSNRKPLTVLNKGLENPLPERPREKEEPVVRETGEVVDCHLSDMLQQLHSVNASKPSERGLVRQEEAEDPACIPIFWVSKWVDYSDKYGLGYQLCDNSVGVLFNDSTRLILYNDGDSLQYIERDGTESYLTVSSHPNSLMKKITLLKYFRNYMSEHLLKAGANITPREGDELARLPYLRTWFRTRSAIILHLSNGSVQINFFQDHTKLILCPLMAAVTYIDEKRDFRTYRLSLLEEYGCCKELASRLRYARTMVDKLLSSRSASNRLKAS
Structure (SMILES),Activity: ratio of the luminescence value of compound treatment group to DMSO treatment group (PLK1),IC50 (MRC-5 cell line; [1]) [nM],IC50 (NCI-H69 cell line) [nM],IC50 (NCI-H526 cell line) [nM],IC50 (MRC-5 cell line; [2]) [nM],Cytotoxicity in normal cell line versus cancer cell lines (in words) (MRC-5 cell line; MRC-5 normal cell line compared with cancer cell lines)
"COc1cc(C(=O)NN2CCC(CCN3CCN(c4cc(F)c(NC5CCC(=O)NC5=O)cc4F)CC3)CC2)c(F)cc1Nc1ncc2c(n1)N(C1CCCC1)CC(F)(F)C(=O)N2C (stereo not shown) [Compound 59, 4-((9-cyclopentyl-7,7-difluoro-5-methyl-6-oxo-6,7,8,9-tetrahydro-5H-pyrimido[4,5-b][1,4]diazepin-2-yl)amino)-N-(4-(2-(4-(4-((2,6-dioxopiperidin-3-yl)amino)-2,5-difluorophenyl)piperazin-1-yl)ethyl)piperidin-1-yl)-2-fluoro-5-methoxybenzamide]",++ (++: <0.5),> 10000,< 50,< 30,,
"COc1cc(-c2nnc(N3CCC(CCN4CCN(c5cc(F)c(NC6CCC(=O)NC6=O)cc5F)CC4)CC3)o2)ccc1Nc1ncc2c(n1)N(C1CCCC1)CC(F)(F)C(=O)N2C (stereo not shown) [Compound 66, 3-((4-(4-(2-(1-(5-(4-((9-cyclopentyl-7,7-difluoro-5-methyl-6-oxo-6,7,8,9-tetrahydro-5H-pyrimido[4,5-b][1,4]diazepin-2-yl)amino)-3-methoxyphenyl)-1,3,4-oxadiazol-2-yl)piperidin-4-yl)ethyl)piperazin-1-yl)-2,5-difluorophenyl)amino)piperidine-2,6-dione]",++ (++: <0.5),> 10000,< 200,< 200,,
"CC[C@@H]1C(=O)N(C)c2cnc(Nc3ccc(C(=O)NC4CCN(C)CC4)cc3OC)nc2N1C1CCCC1 [Comparative Compound 2, BI2536, reference compound]",,,,,3090,
"CCN1CC(F)(F)C(=O)N(C)c2cnc(Nc3ccc(C(=O)NC4CC5(CCN(CC6CCN(c7ccc(C8CCC(=O)NC8=O)cc7F)CC6)CC5)C4)cc3OC)nc21 (stereo not shown) [Compound 4, N(7-((1-(4-(2,6-dioxopiperidin-3-yl)-2-fluorophenyl)piperidin-4-yl)methyl)-7-azaspiro[3.5]nonan-2-yl)-4-((9-ethyl-7,7-difluoro-5-methyl-6-oxo-6,7,8,9-tetrahydro-5H-pyrimido[4,5-b][1,4]diazepin-2-yl)amino)-3-methoxybenzamide]",,> 10000,< 30,< 30,,
"COc1cc(C(=O)NC2CCN(C)CC2)c(F)cc1Nc1ncc2c(n1)N(C1CCCC1)CC(F)(F)C(=O)N2C [Comparative Compound 4, TAK960, reference compound]",,,,,9150,
"COc1cc(C(=O)NC2CC3(CCN(CC4CCN(c5cc(F)c(NC6CCC(=O)NC6=O)cc5F)CC4)CC3)C2)ccc1Nc1ncc2c(n1)N(C1CCCC1)CC(F)(F)C(=O)N2C (stereo not shown) [Compound 70, 4-((9-cyclopentyl-7,7-difluoro-5-methyl-6-oxo-6,7,8,9-tetrahydro-5H-pyrimido[4,5-b][1,4]diazepin-2-yl)amino)-N-(7-((1-(4-((2,6-dioxopiperidin-3-yl)amino)-2,5-difluorophenyl)piperidin-4-yl)methyl)-7-azaspiro[3.5]nonan-2-yl)-3-methoxybenzamide]",+++ (+++: <0.3),,< 30,< 30,,
"CC[C@@H]1C(=O)N(C)c2cnc(Nc3ccc(C(=O)NCCOCCOCCNc4cccc5c4C(=O)N(C4CCC(=O)NC4=O)C5=O)cc3OC)nc2N1C1CCCC1 (stereo partly shown) [Comparative Compound 1, reference compound]",,,,,,exhibited a high level of cytotoxicity in normal cell line
"CC[C@@H]1C(=O)N(C)c2cnc(Nc3ccc(C(=O)N[C@H]4CC[C@H](N5CCN(CC6CC6)CC5)CC4)cc3OC)nc2N1C(C)C [Comparative Compound 3, Volasertib, reference compound]",,,,,2940,

# Now from value to molecule, other results behind:
Activity: ratio of the luminescence value of compound treatment group to DMSO treatment group (PLK1),Structure (SMILES),IC50 (MRC-5 cell line; [1]) [nM],IC50 (NCI-H69 cell line) [nM],IC50 (NCI-H526 cell line) [nM],IC50 (MRC-5 cell line; [2]) [nM],Cytotoxicity in normal cell line versus cancer cell lines (in words) (MRC-5 cell line; MRC-5 normal cell line compared with cancer cell lines)
+++ (+++: <0.3),"COc1cc(C(=O)N[C@H]2C3CN(CC4CCN(c5ccc(NC6CCC(=O)NC6=O)cc5)CC4)C[C@@H]32)ccc1Nc1ncc2c(n1)N(C(C)C)CC(F)(F)C(=O)N2C (stereo partly drawn) [Compound 22, 4-((7,7-difluoro-9-isopropyl-5-methyl-6-oxo-6,7,8,9-tetrahydro-5H-pyrimido[4,5-b][1,4]diazepin-2-yl)amino)-N-((1R,5S,6s)-3-((1-(4-((2,6-dioxopiperidin-3-yl)amino)phenyl)piperidin-4-yl)methyl)-3-azabicyclo[3.1.0]hexan-6-yl)-3-methoxybenzamide]",> 10000,< 50,< 50,,
++ (++: <0.5),"COc1cc(C(=O)NC2CC3(CCN(CCC4CCN(c5cc(F)c(NC6CCC(=O)NC6=O)cc5F)CC4)CC3)C2)ccc1Nc1ncc2c(n1)N(C(C)C)CC(F)(F)C(=O)N2C (stereo not shown) [Compound 61, 4-((7,7-difluoro-9-isopropyl-5-methyl-6-oxo-6,7,8,9-tetrahydro-5H-pyrimido[4,5-b][1,4]diazepin-2-yl)amino)-N-(7-(2-(1-(4-((2,6-dioxopiperidin-3-yl)amino)-2,5-difluorophenyl)piperidin-4-yl)ethyl)-7-azaspiro[3.5]nonan-2-yl)-3-methoxybenzamide]",,< 30,< 30,,
+++ (+++: <0.3),"COc1cc(C(=O)NC2CC3(CCN(CCC4CCN(c5ccc(NC6CCC(=O)NC6=O)cc5F)CC4)CC3)C2)ccc1Nc1ncc2c(n1)N(C(C)C)CC(F)(F)C(=O)N2C (stereo not shown) [Compound 31, 4-((7,7-difluoro-9-isopropyl-5-methyl-6-oxo-6,7,8,9-tetrahydro-5H-pyrimido[4,5-b][1,4]diazepin-2-yl)amino)-N-(7-(2-(1-(4-((2,6-dioxopiperidin-3-yl)amino)-2-fluorophenyl)piperidin-4-yl)ethyl)-7-azaspiro[3.5]nonan-2-yl)-3-methoxybenzamide]",,< 30,< 30,,
++ (++: <0.5),"COc1cc(C(=O)NC2CCN(CCC3CCN(c4cc(F)c(NC5CCC(=O)NC5=O)cc4F)CC3)CC2)ccc1Nc1ncc2c(n1)N(C(C)C)CC(F)(F)C(=O)N2C (stereo not shown) [Compound 62, 4-((7,7-difluoro-9-isopropyl-5-methyl-6-oxo-6,7,8,9-tetrahydro-5H-pyrimido[4,5-b][1,4]diazepin-2-yl)amino)-N-(1-(2-(1-(4-((2,6-dioxopiperidin-3-yl)amino)-2,5-difluorophenyl)piperidin-4-yl)ethyl)piperidin-4-yl)-3-methoxybenzamide]",,< 30,< 30,,
